Reference: patent publication US11019821B2, “Fused bicyclic heterocycle derivatives as pesticides” (Bayer Aktiengesellschaft, priority 2018, dated 2021)

Assays:
Assay type in all cases: in vivo
Ctenocephalides felis [1] = assay: Ctenocephalides felis oral test; settings: application rate 100 ppm in citrated cattle blood, after 2 days, adult cat fleas
Procedure: (§1) Solvent: dimethyl sulfoxide
To produce a suitable active ingredient formulation, 10 mg of active ingredient are mixed with 0.5 ml of dimethyl sulfoxide. Dilution with citrated cattle blood gives the desired concentration.
About 20 unfed adult cat fleas (Ctenocephalides felis) are placed into a chamber which is closed at the top and bottom with gauze. A metal cylinder whose bottom end is closed with parafilm is placed onto the chamber. The cylinder contains the blood/active ingredient formulation, which can be imbibed by the fleas through the parafilm membrane.
After 2 days, the kill in % is determined. 100% means that all of the fleas have been killed; 0% means that none of the fleas have been killed.

Myzus persicae [2] = assay: Myzus persicae spray test; settings: foliar, 120 h, application rate 100 g/ha, after 5 days, Chinese cabbage leaf discs, read-out: efficacy (aphids killed)
Procedure: To produce a suitable active ingredient formulation, 1 part by weight of active ingredient is dissolved with the specified parts by weight of solvent and made up to the desired concentration with water containing an emulsifier concentration of 1000 ppm. To produce further test concentrations, the formulation is diluted with emulsifier-containing water.
Discs of Chinese cabbage leaves (Brassica pekinensis) infested by all stages of the green peach aphid (Myzus persicae) are sprayed with an active ingredient formulation of the desired concentration.
(§2) After 5 days, the efficacy in % is determined. 100% means that all the aphids have been killed; 0% means that no aphids have been killed.

Musca domestica = Musca domestica test; settings: application rate 100 ppm, after 2 days, adult houseflies
Procedure: as §1
(§3) To produce a suitable active ingredient formulation, 10 mg of active ingredient are mixed with 0.5 ml of dimethyl sulfoxide, and the concentrate is diluted with water to the desired concentration.
Vessels containing a sponge treated with sugar solution and the active ingredient formulation of the desired concentration are populated with 10 adult houseflies (Musca domestica).
After 2 days, the kill in % is determined. 100% means that all of the flies have been killed; 0% means that none of the flies have been killed.

Lucilia cuprina = Lucilia cuprina test; settings: application rate 100 ppm, after 2 days, L1 larvae
Procedure: as §1, §3
About 20 L1 larvae of the Australian sheep blowfly (Lucilia cuprina) are transferred into a test vessel containing minced horsemeat and the active ingredient formulation of the desired concentration.
After 2 days, the kill in % is determined. 100% means that all the larvae have been killed; 0% means that no larvae have been killed.

Myzus persicae [3] = assay: Myzus persicae oral test; settings: 120 h, application rate 4 ppm, after 5 days, read-out: efficacy (aphids killed)
Procedure: To produce a suitable active ingredient formulation, 1 part by weight of active ingredient is dissolved with the stated parts by weight of solvent and made up to the desired concentration with water.
50 μl of the active ingredient preparation are transferred into microtitre plates and made up to a final volume of 200 μl with 150 μl of IPL41 insect medium (33%+15% sugar). Subselog Puently, the plates are sealed with parafilm, which a mixed population of green peach aphids (Myzus persicae) within a second microtitre plate is able to puncture and imbibe the solution.
as §2

Ctenocephalides felis [4] = assay: Ctenocephalides felis in vitro contact test with adult cat fleas; settings: application rate 5 μg/cm^2 (=500 g/ha), after 48 h
Procedure: For the coating of the test tubes, 9 mg of active ingredient are first dissolved in 1 ml of acetone p.a. and then diluted to the desired concentration with acetone p.a. 250 μl of the solution are distributed homogeneously on the inner walls and the base of a 25 ml glass tube by turning and rocking on an orbital shaker (rocking rotation at 30 rpm for 2 h). With 900 ppm of active ingredient solution and internal surface area 44.7 cm^2, given homogeneous distribution, an area-based dose of 5 μg/cm^2 is achieved.
After the solvent has evaporated off, the tubes are populated with 5-10 adult cat fleas (Ctenocephalides felis), sealed with a perforated plastic lid and incubated in a horizontal position at room temperature and ambient humidity. After 48 h, efficacy is determined. To this end, the tubes are stood upright and the fleas are knocked to the base of the tube. Fleas which remain motionless at the base or move in an uncoordinated manner are considered to be dead or moribund.
100% efficacy means that all the fleas were dead or moribund. 0% efficacy means that no fleas were harmed.

Boophilus microplus = Boophilus microplus injection test; settings: application rate 20 μg/animal, assessed after 7 days, engorged adult female cattle ticks
Procedure: as §1
To produce a suitable active ingredient formulation, 10 mg of active ingredient are mixed with 0.5 ml of solvent and the concentrate is diluted to the desired concentration with solvent.
1 μl of the active ingredient solution is injected into the abdomen of 5 engorged adult female cattle ticks (Boophilus microplus). The animals are transferred into dishes and kept in a climate-controlled room.
Efficacy is assessed after 7 days by laying of fertile eggs. Eggs which are not visibly fertile are stored in a climate-controlled cabinet until the larvae hatch after about 42 days. An efficacy of 100% means that none of the ticks has laid any fertile eggs; 0% means that all the eggs are fertile.

Rhipicephalus sanguineus = Rhipicephalus sanguineus in vitro contact test with adult brown dog ticks; settings: application rate 5 μg/cm^2 (=500 g/ha), after 48 h
Procedure: For the coating of the test tubes, 9 mg of active ingredient are first dissolved in 1 ml of acetone p.a. and then diluted to the desired concentration with acetone p.a. 250 μl of the solution are distributed homogeneously on the inner walls and base of a 25 ml test tube by turning and rocking on an orbital shaker (rocking rotation at 30 rpm for 2 h). With 900 ppm active ingredient solution and internal surface 44.7 cm^2, given homogeneous distribution, an area-based dose of 5 μg/cm^2 is achieved.
After the solvent has evaporated off, the tubes are populated with 5-10 adult dog ticks (Rhipicephalus sanguineus), sealed with a perforated plastic lid and incubated in a horizontal position in the dark at room temperature and ambient humidity. After 48 h, efficacy is determined. To this end, the ticks are knocked to the floor of the tube and incubated on a hotplate at 45-50° C. for not more than 5 min. Ticks which remain motionless on the floor or move in such an uncoordinated manner that they are unable to deliberately avoid the heat by climbing upwards are considered to be dead or moribund.
100% efficacy means that all the ticks were dead or moribund. 0% efficacy means that none of the ticks had been harmed.

| Structure (SMILES) | efficacy (kill in %) (Ctenocephalides felis [1]) | pest or weed control at 100 g/ha (Myzus persicae [2]) | efficacy (kill in %) (Musca domestica) | efficacy (kill in %) (Lucilia cuprina) | pest or weed control at 4 ppm (Myzus persicae [3]) | efficacy (fleas dead or moribund) (Ctenocephalides felis [4]) | efficacy (no laying of fertile eggs) (Boophilus microplus) | efficacy (ticks dead or moribund) (Rhipicephalus sanguineus) |
| --- | --- | --- | --- | --- | --- | --- | --- | --- |
| CCS(=O)(=O)c1c(-c2nc3cc(C(F)(F)F)ncc3n2C)nn2c1CCCC2 [Example I-02] | 90% | 90% | 80% | 100% | 100% |  |  |  |
| CCS(=O)(=O)c1c(-c2nc3cc(C(F)(F)F)ncc3n2C)nn2c1CC(C)CC2 (stereo not drawn) [Example I-05] | 95% | 100% | 80% |  | 100% | 100% | 100% | 100% |
